From US9315465B2, “Photostable AIE luminogens for specific mitochondrial imaging and its method of manufacturing thereof” (THE HONG KONG UNIVERSITY OF SCIENCE AND TECHNOLOGY, priority 2013, dated 2016)

How the values were obtained:
[1] = system: mitochondria of the living HeLa cells; test: Mitochondria staining and co-localization by fluorescence microscopy; format: cell-based
Procedure: TPE-TPP was then assessed for its ability to localize and stain mitochondria in living cells by fluorescence microscope. Cervical cancer HeLa cells were incubated with 5 μM TPE-TPP for 1 h and excess dyes were washed away by buffer solution.
Pearson's correlation coefficient (Rr; from +1 to −1), which indicates the degree of linear dependence between two variables, is used to quantify the overlapping of the staining region between TPE-TPP and MT.
In FIG. 7A, cells were incubated with TPE-TPP for 1 h.
An AIE luminogen targeting mitochondria specifically with red fluorescence emission was also synthesized, i.e., TPE-MitoR, (E)-1-ethyl-3,3-dimethyl-2-(2-(4′(1,2,2-triphenylvinyl)-[1,1′-biphenyl]-4-yl)vinyl)-3H-indol-1-ium hexafluorophosphate. […] TPE-MitoR's ability for tracking mitochondria is evaluated by colocalizing with TPE-TPP (FIG. 14).
In addition, cell fixation is important for sample preserving.

[2] = system: mitochondria of CCCP-treated HeLa cells; test: Tolerance of mitochondrial staining to decrease of mitochondrial ΔΨm (CCCP-treated cells); format: cell-based; conditions: HeLa cells treated with 10 μM CCCP prior to staining
From the text: Excitation wavelength: 540-580 nm (for MT) and 330-385 nm (for TPE-TPP).
To test the tolerance of TPE-TPP and MT to the change of mitochondrial ΔΨm, carbonyl cyanide m-chlorophenylhydrazone (CCCP) was used to treat the cells prior to the staining procedure. CCCP is an uncoupler that causes rapid acidification of the mitochondria and dysfunction of ATP synthase resulting in the decrease of the mitochondrial ΔΨm. […] […] Since the targeting of MT to mitochondria is driven by the huge ΔΨm, the decrease of ΔΨm, will affect the direction and accumulation of cationic MT to mitochondria. It was expected that similar phenomena would be observed for TPE-TPP as it shares a similar working principle.

HeLa cells = test: Cytotoxicity by MTT assay; format: cell-based; conditions: added to the culture medium
Procedure: Applying an organelle tracker into living sample, the cytotoxicity of the probe, TPE-TPP, was evaluated using the 3-(4,5-dimethyl-2-thiazolyl)-2,5-diphenyltetrazolium bromide (MTT) assay (FIG. 6).

[3] = Particle size analysis of nanoaggregates; format: physicochemical; conditions: aqueous solution containing 0.1% DMSO, identical condition for cell staining
From the text: The DMF solution of TPE-TPP was almost non-emissive while the solid state is strongly luminescent at 466 nm. […] The scheme of synthesis of said TPP-functionalized TPE is as follow: […]

[4] = From the text: The TPE core was synthesized simply from a McMurry coupling reaction. TPP was attached through bromination and subsequent reaction with triphenylphosphine.
mitochondria = test: Effect of CCCP on mitochondria (pH, ΔΨm, morphology); format: cell-based
Procedure: Excitation wavelength: 405 nm; emission filter: 449-520 nm; irradiation time: 15.49 sec/scan.
To test the tolerance of TPE-TPP and MT to the change of mitochondrial ΔΨm, carbonyl cyanide m-chlorophenylhydrazone (CCCP) was used to treat the cells prior to the staining procedure. CCCP is an uncoupler that causes rapid acidification of the mitochondria and dysfunction of ATP synthase resulting in the decrease of the mitochondrial ΔΨm. Upon treatment with 20 μM CCCP, the pH of mitochondria decreased about 0.7 and ΔΨm thus decreased around 40 mV according to the Nernst equation. […] Since the targeting of MT to mitochondria is driven by the huge ΔΨm, the decrease of ΔΨm, will affect the direction and accumulation of cationic MT to mitochondria. It was expected that similar phenomena would be observed for TPE-TPP as it shares a similar working principle.
The high tolerance of TPE-TPP to the decrease of ΔΨm enables the observation of change of mitochondrial morphology induced by CCCP. […] The early stage of apoptosis involves remodeling of mitochondrial cristae and the consequent occurrence of morphological change of mitochondria, which is considered as an irreversible process associated with the collapse of ΔΨm. TPE-TPP has excellent specificity to mitochondria with outstanding photostability and tolerance to microenvironment change, representing a potential candidate of tracking agent for apoptosis studies.

[5] = system: reactive oxygen species (ROS); test: ROS detection with H2DCFDA under UV irradiation; conditions: solution of TPE-IQ 10 μM and H2DCFDA 1 μM, intensity at 521 nm
Procedure: Concentration of TPE-IQ: 10 μM; concentration of H2DCFDA: 1 μM.
(§1) With UV irradiation, the morphology of mitochondria changed gradually, indicating the initiation of the cell apoptosis process. […] To understand the underlying mechanism of TPE-IQ induced cell apoptosis, reactive oxygen species (ROS) detection agent H2DCFDA was utilized. […] This means that TPE-IQ could be utilized as a sensitizer for ROS generation, to induce cell apoptosis. Considering the mitochondria targeting of the probe, TPE-IQ could be used as an apoptosis inducer while enabling observation of the morphology change of the mitochondria at the same time. Besides, the probe may be utilized in phototherapy for selectively killing specific cells, while allowing for the study of how cells communicate when one cell undergoes the apoptosis process.

HeLa cell = test: UV-irradiation induced mitochondrial morphology change / apoptosis in stained cells; format: cell-based; conditions: HeLa cell stained with TPE-IQ, UV 6 s then 15 min in the dark
From the text: (A) 1 s; (B) 2 s; (C) 6 s; (D) 11 s.
as §1

## [Br-].[Br-].c1ccc(C(=C(c2ccccc2)c2ccc(C[P+](c3ccccc3)(c3ccccc3)c3ccccc3)cc2)c2ccc(C[P+](c3ccccc3)(c3ccccc3)c3ccccc3)cc2)cc1 [TPE-TPP, Bis(Triphenylphosphonium) Tetraphenylethene]
[1]; HeLa cells, 5 μM, 1 h
  localization of staining in living cells: stains specifically the mitochondrial region
[1]; HeLa cells, data not shown
  staining time sufficient to enter and light up mitochondria: 15 min
[1]; co-staining in living HeLa cells, TPE-TPP 5 μM, MT 50 nM
  Pearson's correlation coefficient (Rr) of overlap with MitoTracker Red FM (MT): 0.96
[2]
  specificity and sensitivity to mitochondria in CCCP-treated cells: perfectly retained
HeLa cells
  concentration up to which cell viability is not significantly altered: up to 7.5 μM
[3]
  average particle size: 144 nm
[4]; aqueous solution
  solubility in aqueous solution: relatively poor solubility
[4]; polar solvents such as DMF and DMSO
  solubility in polar solvents: completely soluble

## CC[N+]1=C(/C=C/c2ccc(-c3ccc(C(=C(c4ccccc4)c4ccccc4)c4ccccc4)cc3)cc2)C(C)(C)c2ccccc21 [TPE-MitoR, (E)-1-ethyl-3,3-dimethyl-2-(2-(4′(1,2,2-triphenylvinyl)-[1,1′-biphenyl]-4-yl)vinyl)-3H-indol-1-ium hexafluorophosphate]
[1]; HeLa cells, 5 μM, 30 min
  ability for tracking mitochondria (colocalization with TPE-TPP): promising result in locating mitochondria

## N#CC(C#N)=NNc1cccc(Cl)c1 [CCCP, carbonyl cyanide m-chlorophenylhydrazone]
mitochondria; 20 μM CCCP
  decrease of pH of mitochondria: about 0.7
mitochondria; 20 μM CCCP, according to the Nernst equation
  decrease of ΔΨm: around 40 mV
mitochondria; living HeLa cells exposed to CCCP (20 μM), stained with TPE-TPP
  change of mitochondrial morphology: gradually transformed to small and dispersed fragments

## CCC[n+]1cc2ccc(C(=C(c3ccccc3)c3ccccc3)c3ccccc3)cc2c(-c2ccccc2)c1-c1ccccc1 [TPE-IQ, 3,4-diphenyl-2-propyl-6-(1,2,2-triphenylvinyl)isoquinolin-2-ium tetrafluoroborate]
[1]; HeLa cells after 4% paraformaldehyde (PFA) fixation for 50 min
  mitochondria targeting in fixed cells: could still target to the mitochondria
[1]; HeLa cells, 200 nM
  incubation time sufficient for lighting up the mitochondria: 10 min
[1]; HeLa cells, 500 nM, 1 min incubation
  emission from the mitochondria of the cells: strong emission
[5]
  H2DCFDA fluorescence (ROS production) with continuous UV irradiation: increased gradually
HeLa cell
  mitochondrial morphology after UV irradiation: changed substantially

## CN1C(=CC=Cc2n(Cc3ccc(CCl)cc3)c3cc(Cl)c(Cl)cc3[n+]2Cc2ccc(CCl)cc2)C(C)(C)c2ccccc21.[Cl-] [MT]
[2]
  specificity and sensitivity to mitochondria in CCCP-treated cells: no more specificity to mitochondria and the sensitivity became worse
